Test results: publication PMC10209615, “Pharmacological inhibition of LSD1 suppresses growth of hepatocellular carcinoma by inducing GADD45B” (MedComm, 2023)

What was measured:
Experiment in all cases: Kinase activity detection (Eurofins)
Assay type in all cases: biochemical
PDGFRα = target: T1, PDGFRα (Homo sapiens, UniProt P16234); details: ZY0511 1 µM, read-out: Activation rate
T1 construct: purchased Eurofins Pharma Discovery Services (KinaseProfiler)
Description: (§1) The activity of ZY0511 against 104 cancer‐related kinases was carried out by Eurofins Pharma Discovery Services (Celle Lévescault, France).

Hck = target: T2, Hck (Homo sapiens, UniProt P08631); details: ZY0511 1 µM, read-out: Inhibition rate
T2 construct: purchased Eurofins Pharma Discovery Services (KinaseProfiler)
Description: as §1

B-Raf (V599E) = target: T3, B-Raf (V599E) (Homo sapiens, UniProt P15056, V600E); details: ZY0511 1 µM, read-out: Inhibition rate
T3 construct: purchased Eurofins Pharma Discovery Services (KinaseProfiler)
T3 sequence (P15056 417-766 V600E limits assumed): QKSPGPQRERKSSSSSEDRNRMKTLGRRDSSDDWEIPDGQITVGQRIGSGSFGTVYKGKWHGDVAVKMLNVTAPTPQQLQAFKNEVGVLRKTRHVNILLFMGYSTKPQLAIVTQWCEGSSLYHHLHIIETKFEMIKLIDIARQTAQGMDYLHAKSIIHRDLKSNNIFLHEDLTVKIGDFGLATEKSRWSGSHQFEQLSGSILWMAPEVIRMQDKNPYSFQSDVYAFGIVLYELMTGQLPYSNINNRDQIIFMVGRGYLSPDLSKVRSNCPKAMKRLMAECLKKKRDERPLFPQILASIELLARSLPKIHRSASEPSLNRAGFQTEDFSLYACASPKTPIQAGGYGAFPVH
Description: as §1

PKCι = target: T4, PKCι (Homo sapiens, UniProt P41743); details: ZY0511 1 µM, read-out: Inhibition rate
T4 construct: purchased Eurofins Pharma Discovery Services
Description: as §1

PKCη = target: T5, PKCη (Homo sapiens, UniProt P24723); details: ZY0511 1 µM, read-out: Activation rate
T5 construct: purchased Eurofins Pharma Discovery Services (KinaseProfiler)
Description: as §1

p70S6K = target: T6, p70S6K (Homo sapiens, UniProt P23443); details: ZY0511 1 µM, read-out: Inhibition rate
T6 construct: purchased Eurofins Pharma Discovery Services
Description: as §1

EGFR (T790M, L858R) = target: T7, EGFR (T790M, L858R) (Homo sapiens, UniProt P00533, L858R/T790M); details: ZY0511 1 µM
T7 construct: purchased Eurofins Pharma Discovery Services (KinaseProfiler)
Description: as §1

ATR/ATRIP = target: T8, ATR/ATRIP (Homo sapiens, UniProt Q13535)
T8 construct: purchased Eurofins Pharma Discovery Services
T8 sequence (Q13535 whole entry): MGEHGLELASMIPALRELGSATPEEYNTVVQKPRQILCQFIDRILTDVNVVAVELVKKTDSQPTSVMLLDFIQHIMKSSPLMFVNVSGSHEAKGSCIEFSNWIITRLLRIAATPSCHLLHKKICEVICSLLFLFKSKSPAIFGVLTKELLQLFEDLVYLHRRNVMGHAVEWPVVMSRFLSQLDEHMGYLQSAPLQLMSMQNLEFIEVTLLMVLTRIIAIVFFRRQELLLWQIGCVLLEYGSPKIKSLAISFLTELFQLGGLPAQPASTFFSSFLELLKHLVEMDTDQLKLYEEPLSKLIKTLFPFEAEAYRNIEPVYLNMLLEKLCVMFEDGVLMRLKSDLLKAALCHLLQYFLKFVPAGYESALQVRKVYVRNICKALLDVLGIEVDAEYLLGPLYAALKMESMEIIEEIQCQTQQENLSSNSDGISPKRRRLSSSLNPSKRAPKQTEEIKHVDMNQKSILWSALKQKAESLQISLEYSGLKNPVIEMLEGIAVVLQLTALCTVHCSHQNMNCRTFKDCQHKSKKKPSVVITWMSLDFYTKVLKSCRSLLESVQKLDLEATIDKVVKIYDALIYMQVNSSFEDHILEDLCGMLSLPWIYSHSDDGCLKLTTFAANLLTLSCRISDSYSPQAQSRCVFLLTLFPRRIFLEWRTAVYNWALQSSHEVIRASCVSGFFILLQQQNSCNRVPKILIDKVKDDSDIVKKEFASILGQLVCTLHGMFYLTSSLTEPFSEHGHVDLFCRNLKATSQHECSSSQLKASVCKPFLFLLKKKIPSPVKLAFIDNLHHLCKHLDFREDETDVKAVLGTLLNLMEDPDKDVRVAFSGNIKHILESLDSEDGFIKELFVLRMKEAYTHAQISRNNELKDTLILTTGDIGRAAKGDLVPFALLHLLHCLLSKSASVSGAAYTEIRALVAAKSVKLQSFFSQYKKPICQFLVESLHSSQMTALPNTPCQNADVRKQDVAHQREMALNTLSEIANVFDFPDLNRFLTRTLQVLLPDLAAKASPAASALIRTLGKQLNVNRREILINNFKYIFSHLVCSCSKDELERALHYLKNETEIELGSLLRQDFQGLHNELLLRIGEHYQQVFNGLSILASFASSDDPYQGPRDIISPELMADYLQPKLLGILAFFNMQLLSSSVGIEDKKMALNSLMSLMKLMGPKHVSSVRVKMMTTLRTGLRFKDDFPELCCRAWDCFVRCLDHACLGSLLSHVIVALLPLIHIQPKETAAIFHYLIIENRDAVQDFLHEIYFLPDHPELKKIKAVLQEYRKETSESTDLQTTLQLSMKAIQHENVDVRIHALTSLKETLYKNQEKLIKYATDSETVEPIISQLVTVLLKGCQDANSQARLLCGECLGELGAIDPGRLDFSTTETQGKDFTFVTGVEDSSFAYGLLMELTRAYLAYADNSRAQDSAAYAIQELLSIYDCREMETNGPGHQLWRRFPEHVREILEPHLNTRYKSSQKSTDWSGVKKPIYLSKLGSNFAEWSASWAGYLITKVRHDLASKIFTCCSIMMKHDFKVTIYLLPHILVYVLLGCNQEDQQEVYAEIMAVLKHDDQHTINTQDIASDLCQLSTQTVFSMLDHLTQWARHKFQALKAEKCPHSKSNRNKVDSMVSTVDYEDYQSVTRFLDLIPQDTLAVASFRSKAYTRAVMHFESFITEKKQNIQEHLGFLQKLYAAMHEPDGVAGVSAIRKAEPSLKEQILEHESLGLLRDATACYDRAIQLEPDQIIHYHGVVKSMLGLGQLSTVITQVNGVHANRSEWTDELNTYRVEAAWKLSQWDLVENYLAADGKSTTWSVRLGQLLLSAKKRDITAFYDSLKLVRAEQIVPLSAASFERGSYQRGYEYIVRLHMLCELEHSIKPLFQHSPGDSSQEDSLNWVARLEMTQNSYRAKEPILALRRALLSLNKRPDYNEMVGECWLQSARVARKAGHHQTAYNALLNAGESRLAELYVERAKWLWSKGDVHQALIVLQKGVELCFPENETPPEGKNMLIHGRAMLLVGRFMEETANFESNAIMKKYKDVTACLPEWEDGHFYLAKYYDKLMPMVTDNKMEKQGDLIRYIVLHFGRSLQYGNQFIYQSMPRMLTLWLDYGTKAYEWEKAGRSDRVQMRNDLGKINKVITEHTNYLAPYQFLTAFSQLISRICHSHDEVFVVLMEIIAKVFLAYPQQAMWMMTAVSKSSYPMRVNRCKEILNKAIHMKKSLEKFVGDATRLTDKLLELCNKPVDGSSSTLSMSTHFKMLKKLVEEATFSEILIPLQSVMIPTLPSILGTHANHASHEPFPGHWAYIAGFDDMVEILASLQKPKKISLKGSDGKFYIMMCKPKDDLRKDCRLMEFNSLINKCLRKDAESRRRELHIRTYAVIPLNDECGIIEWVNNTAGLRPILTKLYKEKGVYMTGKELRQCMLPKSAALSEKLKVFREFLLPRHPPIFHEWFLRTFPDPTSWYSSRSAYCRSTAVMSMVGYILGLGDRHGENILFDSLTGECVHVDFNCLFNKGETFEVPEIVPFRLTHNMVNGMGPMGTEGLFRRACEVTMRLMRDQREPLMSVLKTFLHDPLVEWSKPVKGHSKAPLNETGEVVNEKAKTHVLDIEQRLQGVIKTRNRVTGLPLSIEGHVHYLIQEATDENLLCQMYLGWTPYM
T8 sequence (Q8WXE1 whole entry partner): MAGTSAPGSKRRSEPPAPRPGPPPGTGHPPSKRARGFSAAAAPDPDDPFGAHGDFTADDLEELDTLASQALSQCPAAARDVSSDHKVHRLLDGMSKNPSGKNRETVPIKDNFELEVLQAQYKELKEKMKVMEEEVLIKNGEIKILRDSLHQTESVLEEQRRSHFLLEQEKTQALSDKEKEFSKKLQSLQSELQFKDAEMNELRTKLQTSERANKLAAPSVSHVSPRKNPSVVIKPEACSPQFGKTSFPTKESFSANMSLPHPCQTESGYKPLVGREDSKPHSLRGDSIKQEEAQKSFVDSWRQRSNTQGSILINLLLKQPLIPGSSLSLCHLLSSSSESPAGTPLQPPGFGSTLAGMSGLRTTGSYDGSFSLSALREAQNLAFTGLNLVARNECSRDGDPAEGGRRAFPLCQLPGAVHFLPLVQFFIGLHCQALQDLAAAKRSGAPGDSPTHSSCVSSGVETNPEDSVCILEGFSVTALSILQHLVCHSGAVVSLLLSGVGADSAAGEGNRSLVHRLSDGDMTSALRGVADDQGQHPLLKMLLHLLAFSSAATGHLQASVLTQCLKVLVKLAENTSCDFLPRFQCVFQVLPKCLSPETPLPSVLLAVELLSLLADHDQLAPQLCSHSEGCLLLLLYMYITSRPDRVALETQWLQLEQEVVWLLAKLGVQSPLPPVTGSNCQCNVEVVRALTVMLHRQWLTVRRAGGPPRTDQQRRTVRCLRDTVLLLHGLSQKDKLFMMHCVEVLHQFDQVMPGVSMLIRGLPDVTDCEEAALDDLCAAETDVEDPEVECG
Description: as §1

B-Raf = target: T9, B-Raf (Homo sapiens, UniProt P15056); details: ZY0511 1 µM, read-out: Inhibition rate
T9 construct: purchased Eurofins Pharma Discovery Services (KinaseProfiler)
Description: as §1

PI3 Kinase (p110α/p85α) = target: T10, PI3 Kinase (p110α/p85α) (Homo sapiens, UniProt P42336); details: ZY0511 1 µM, read-out: Inhibition rate
T10 construct: purchased Eurofins Pharma Discovery Services (KinaseProfiler)
Description: as §1

Wee1 = target: T11, Wee1 (Homo sapiens, UniProt P30291); details: ZY0511 1 µM, read-out: Activation rate
T11 construct: purchased Eurofins Pharma Discovery Services (KinaseProfiler)
Description: as §1

[1] = target: T12, PI3 Kinase (p110α (H1047R)/p85α) (Homo sapiens, UniProt P42336, H1047R); details: ZY0511 1 µM, read-out: Inhibition rate
T12 construct: purchased Eurofins Pharma Discovery Services (KinaseProfiler)
Description: as §1

PAK1 = target: T13, PAK1 (Homo sapiens, UniProt Q13153); details: ZY0511 1 µM, read-out: Activation rate
T13 construct: purchased Eurofins Pharma Discovery Services (KinaseProfiler)
Description: as §1

Flt4 = target: T14, Flt4 (Homo sapiens, UniProt P35916)
T14 construct: purchased Eurofins Pharma Discovery Services
T14 sequence (P35916 25-1363, species assumed): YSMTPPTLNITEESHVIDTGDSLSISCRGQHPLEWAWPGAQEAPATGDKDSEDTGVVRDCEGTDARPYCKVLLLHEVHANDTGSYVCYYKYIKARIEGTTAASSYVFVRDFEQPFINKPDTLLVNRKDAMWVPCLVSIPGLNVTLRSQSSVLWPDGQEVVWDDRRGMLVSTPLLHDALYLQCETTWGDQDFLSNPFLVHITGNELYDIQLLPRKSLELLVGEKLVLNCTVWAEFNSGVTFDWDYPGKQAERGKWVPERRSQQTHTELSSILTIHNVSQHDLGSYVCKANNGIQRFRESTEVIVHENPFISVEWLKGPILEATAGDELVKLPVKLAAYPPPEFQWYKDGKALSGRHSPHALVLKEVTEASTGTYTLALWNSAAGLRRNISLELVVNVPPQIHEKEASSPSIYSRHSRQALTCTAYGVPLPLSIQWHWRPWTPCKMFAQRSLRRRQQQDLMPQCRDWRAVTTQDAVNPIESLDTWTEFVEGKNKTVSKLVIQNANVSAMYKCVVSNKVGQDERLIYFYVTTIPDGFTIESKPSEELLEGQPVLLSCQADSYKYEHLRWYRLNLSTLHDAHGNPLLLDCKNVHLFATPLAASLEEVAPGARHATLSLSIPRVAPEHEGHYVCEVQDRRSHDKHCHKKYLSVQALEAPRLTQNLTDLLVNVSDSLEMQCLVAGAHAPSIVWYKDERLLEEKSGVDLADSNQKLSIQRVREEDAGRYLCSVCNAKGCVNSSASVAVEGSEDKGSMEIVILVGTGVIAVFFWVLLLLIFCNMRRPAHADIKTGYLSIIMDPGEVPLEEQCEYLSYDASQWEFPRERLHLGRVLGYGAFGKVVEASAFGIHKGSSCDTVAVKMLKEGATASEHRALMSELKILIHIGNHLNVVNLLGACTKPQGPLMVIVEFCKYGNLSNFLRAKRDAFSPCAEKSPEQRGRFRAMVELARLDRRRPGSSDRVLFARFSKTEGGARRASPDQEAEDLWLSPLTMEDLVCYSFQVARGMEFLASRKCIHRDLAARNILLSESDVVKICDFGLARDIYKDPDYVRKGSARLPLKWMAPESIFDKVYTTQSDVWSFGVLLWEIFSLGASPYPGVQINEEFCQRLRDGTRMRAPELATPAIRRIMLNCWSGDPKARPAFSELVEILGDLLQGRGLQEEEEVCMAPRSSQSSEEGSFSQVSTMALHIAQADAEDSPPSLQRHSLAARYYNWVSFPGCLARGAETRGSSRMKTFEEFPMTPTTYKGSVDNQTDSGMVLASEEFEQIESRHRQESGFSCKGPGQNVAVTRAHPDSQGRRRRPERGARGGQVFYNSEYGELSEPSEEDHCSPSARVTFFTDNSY
Description: as §1

ErbB2 = target: T15, ErbB2 (Homo sapiens, UniProt P04626); details: ZY0511 1 µM, read-out: Activation rate
T15 construct: purchased Eurofins Pharma Discovery Services (KinaseProfiler)
Description: as §1

Abl (T315I) = target: T16, Abl (T315I) (Homo sapiens, UniProt P00519, T315I); details: ZY0511 1 µM, read-out: Inhibition rate
T16 construct: purchased Eurofins Pharma Discovery Services
Description: as §1

FGFR2 = target: T17, FGFR2 (Homo sapiens, UniProt P21802); details: ZY0511 1 µM, read-out: Inhibition rate
T17 construct: purchased Eurofins Pharma Discovery Services
Description: as §1

Bmx = target: T18, Bmx (Homo sapiens, UniProt P51813); details: ZY0511 1 µM, read-out: Inhibition rate
T18 construct: purchased Eurofins Pharma Discovery Services (KinaseProfiler)
Description: as §1

Abl = target: T19, Abl (Homo sapiens, UniProt P00519); details: ZY0511 1 µM, read-out: Inhibition rate
T19 construct: purchased Eurofins Pharma Discovery Services
Description: as §1

PKD2 = target: T20, PKD2 (Homo sapiens, UniProt Q9BZL6); details: ZY0511 1 µM, read-out: Inhibition rate
T20 construct: purchased Eurofins Pharma Discovery Services
Description: as §1

EGFR = target: T21, EGFR (Homo sapiens, UniProt P00533); details: ZY0511 1 µM, read-out: Inhibition rate
T21 construct: purchased Eurofins Pharma Discovery Services (KinaseProfiler)
Description: as §1

Pim-1 = target: T22, Pim-1 (Homo sapiens, UniProt P11309); details: ZY0511 1 µM, read-out: Inhibition rate
T22 construct: purchased Eurofins Pharma Discovery Services (KinaseProfiler)
Description: as §1

PAK4 = target: T23, PAK4 (Homo sapiens, UniProt O96013); details: ZY0511 1 µM, read-out: Inhibition rate
T23 construct: purchased Eurofins Pharma Discovery Services (KinaseProfiler)
Description: as §1

EGFR (L861Q) = target: T24, EGFR (L861Q) (Homo sapiens, UniProt P00533, L861Q); details: ZY0511 1 µM, read-out: Inhibition rate
T24 construct: purchased Eurofins Pharma Discovery Services (KinaseProfiler)
Description: as §1

CDK2/cyclinA = target: T25, CDK2/cyclinA (Homo sapiens, UniProt P24941); details: ZY0511 1 µM, read-out: Inhibition rate
T25 construct: purchased Eurofins Pharma Discovery Services
Description: as §1

cKit (D816H) = target: T26, cKit (D816H) (Homo sapiens, UniProt P10721, D816H); details: ZY0511 1 µM, read-out: Activation rate
T26 construct: purchased Eurofins Pharma Discovery Services (KinaseProfiler)
Description: as §1

c-RAF = target: T27, c-RAF (Homo sapiens, UniProt P04049); details: ZY0511 1 µM, read-out: Inhibition rate
T27 construct: purchased Eurofins Pharma Discovery Services (KinaseProfiler)
Description: as §1

Ret = target: T28, Ret (Homo sapiens, UniProt P07949); details: ZY0511 1 µM, read-out: Activation rate
T28 construct: purchased Eurofins Pharma Discovery Services (KinaseProfiler)
Description: as §1

Aurora-A = target: T29, Aurora-A (Homo sapiens, UniProt O14965); details: ZY0511 1 µM, read-out: Inhibition rate
T29 construct: purchased Eurofins Pharma Discovery Services (KinaseProfiler)
Description: as §1

CHK2 = target: T30, CHK2 (Homo sapiens, UniProt O96017); details: ZY0511 1 µM, read-out: Activation rate
T30 construct: purchased Eurofins Pharma Discovery Services (KinaseProfiler)
Description: as §1

ROCK-I = target: T31, ROCK-I (Homo sapiens, UniProt Q13464); details: ZY0511 1 µM, read-out: Inhibition rate
T31 construct: purchased Eurofins Pharma Discovery Services
Description: as §1

KDR = target: T32, KDR (Homo sapiens, UniProt P35968); details: ZY0511 1 µM, read-out: Inhibition rate
T32 construct: purchased Eurofins Pharma Discovery Services (KinaseProfiler)
Description: as §1

CK1γ2 = target: T33, CK1γ2 (Homo sapiens, UniProt P78368); details: ZY0511 1 µM, read-out: Inhibition rate
T33 construct: purchased Eurofins Pharma Discovery Services
Description: as §1

FGFR1 = target: T34, FGFR1 (Homo sapiens, UniProt P11362); details: ZY0511 1 µM, read-out: Activation rate
T34 construct: purchased Eurofins Pharma Discovery Services (KinaseProfiler)
Description: as §1

FGFR3 = target: T35, FGFR3 (Homo sapiens, UniProt P22607); details: ZY0511 1 µM, read-out: Inhibition rate
T35 construct: purchased Eurofins Pharma Discovery Services (KinaseProfiler)
Description: as §1

CDK5/p35 = target: T36, CDK5/p35 (Homo sapiens, UniProt Q00535); details: ZY0511 1 µM, read-out: Inhibition rate
T36 construct: purchased Eurofins Pharma Discovery Services (KinaseProfiler)
Description: as §1

DYRK2 = target: T37, DYRK2 (Homo sapiens, UniProt Q92630); details: ZY0511 1 µM, read-out: Inhibition rate
T37 construct: purchased Eurofins Pharma Discovery Services (KinaseProfiler)
Description: as §1

[2] = target: T38, PI3 Kinase (p110α (E542K)/p85α) (Homo sapiens, UniProt P42336, E542K); details: ZY0511 1 µM, read-out: Inhibition rate
T38 construct: purchased Eurofins Pharma Discovery Services
Description: as §1

CK1γ1 = target: T39, CK1γ1 (Homo sapiens, UniProt Q9HCP0); details: ZY0511 1 µM, read-out: Inhibition rate
T39 construct: purchased Eurofins Pharma Discovery Services
Description: as §1

EGFR (T790M) = target: T40, EGFR (T790M) (Homo sapiens, UniProt P00533, T790M); details: ZY0511 1 µM
T40 construct: purchased Eurofins Pharma Discovery Services (KinaseProfiler)
Description: as §1

[3] = ZY0511 1 µM, read-out: Inhibition rate

With `O=C(N/N=C1\CCc2c(Cl)ccc(O)c21)c1cccc(S(=O)(=O)N2CCOCC2)c1` [ZY0511, (E)‐N'‐(2, 3‐dihydro‐1H‐inden‐1‐ylidene) benzohydrazides] the activation at 1 µM (PDGFRα) was 33%, the inhibition at 1 µM (Hck) was 29% and the inhibition at 1 µM (B-Raf (V599E)) was 51%. It also gave an inhibition at 1 µM (PKCι) of 2%, an activation at 1 µM (PKCη) of 2% and an inhibition at 1 µM (p70S6K) of 11%. The Activation rate (EGFR (T790M, L858R)) was 2%, the IC50 (ATR/ATRIP) was 9.59 µM and the inhibition at 1 µM (ATR/ATRIP; [3]) was 62%. It also gave an inhibition at 1 µM (B-Raf) of 29%, an inhibition at 1 µM (PI3 Kinase (p110α/p85α)) of 6% and an activation at 1 µM (Wee1) of 11%. The inhibition at 1 µM [1] was 6%, the activation at 1 µM (PAK1) was 1% and the IC50 (Flt4) was greater than 10 µM. It also gave an inhibition at 1 µM (Flt4; [3]) of 62%, an activation at 1 µM (ErbB2) of 25% and an inhibition at 1 µM (Abl (T315I)) of 1%. For the same compound, the inhibition at 1 µM (FGFR2) was 11%, the inhibition at 1 µM (Bmx) was 17% and the inhibition at 1 µM (Abl) was 13%. It also gave an inhibition at 1 µM (PKD2) of 2%, an inhibition at 1 µM (EGFR) of 7% and an inhibition at 1 µM (Pim-1) of 15%. For the same compound, the inhibition at 1 µM (PAK4) was 20%, the inhibition at 1 µM (EGFR (L861Q)) was 6% and the inhibition at 1 µM (CDK2/cyclinA) was 10%. It also gave an activation at 1 µM (cKit (D816H)) of 2%, an inhibition at 1 µM (c-RAF) of 43% and an activation at 1 µM (Ret) of 15%. It also gave an inhibition at 1 µM (Aurora-A) of 17%, an activation at 1 µM (CHK2) of 2% and an inhibition at 1 µM (ROCK-I) of 11%. It also gave an inhibition at 1 µM (KDR) of 30%, an inhibition at 1 µM (CK1γ2) of 13% and an activation at 1 µM (FGFR1) of 1%. The inhibition at 1 µM (FGFR3) was 20%, the inhibition at 1 µM (CDK5/p35) was 9% and the inhibition at 1 µM (DYRK2) was 5%. The inhibition at 1 µM [2] was 2%, the inhibition at 1 µM (CK1γ1) was 12% and the Activation rate (EGFR (T790M)) was 5%.
